Assays:
Assay type in all cases: biochemical
[1] = target: xanthine oxidase (Homo sapiens, UniProt P47989); assay: Inhibitory activity against xanthine oxidase (uric acid production, absorbance at 290 nm); settings: samples 1 mg/mL, 50 mU/ml xanthine oxidase; average±SD of three measurements
Protocol: Inhibitory activity against xanthine oxidase was evaluated by the level of the uric acid produced in the xanthine/xanthine oxidase system, which can be quantitatively analyzed by absorbance at 290 nm.
100 μL of 200 mM phosphate buffer (pH 7.5) containing 0.5 mM xanthine and 1 mM EDTA was mixed with 100 μL of the samples (1 mg/mL) to which 50 mU/ml xanthine oxidase was then added to induce the production of uric acid. The produced uric acid was quantitatively analyzed by absorbance at 290 nm.
Allopurinol, a xanthine […] inhibitor used to treat gout, was used as a positive control.

[2] = DPPH radical scavenging activity; settings: 0.4 mM DPPH, room temperature 10 min, absorbance 517 nm; average±SD of three measurements
Protocol: For use in this assay, the samples prepared in the Examples and Comparative Examples were lyophilised and/or dried and pulverized into powders.
The samples were evaluated for DPPH radical scavenging activity according to the Brand-Williams method (Brand-Williams et al., Use of a free radical method to evaluate antioxidant activity. Food Sci. Technol. 28(1): 25-30, (1995)). The samples were added at various concentrations to 0.4 mM DPPH which was then incubated at room temperature for 10 min, followed by measuring absorbance at 517 nm.
(§1) The data are average±standard deviation of three measurements.
For the positive control, the commercially available antioxidant BHA ([…], butylated hydroxy anisole) was employed.

[3] = Superoxide anion radical scavenging activity (NBT reduction method, xanthine/xanthine oxidase system); settings: 25 mU/mL xanthine oxidase, 0.05 mM xanthine, 0.6 mM NBT, 25° C. 20 min, absorbance 560 nm; average±SD of three measurements
Protocol: Superoxide anion radical scavenging activity was evaluated by the NBT (nitro blue tetrazolium) reduction method in which NBT is reduced by the superoxide anion radicals formed in a xanthine/xanthine oxydase system.
Along with 25 mU/mL of xanthine oxidase, the samples were added at various concentrations to 1.5 mL of a reaction solution containing 50 mM potassium phosphate buffer (pH 7.8), 0.05 mM xanthine, and 0.6 mM NBT, and incubated at 25° C. for 20 min before measuring absorbance at 560 nm.
as §1
For a positive control, the commercially available antioxidant BHA ([…], butylated hydroxy anisole) was employed.

Sequence of xanthine oxidase (P47989 whole entry, species assumed): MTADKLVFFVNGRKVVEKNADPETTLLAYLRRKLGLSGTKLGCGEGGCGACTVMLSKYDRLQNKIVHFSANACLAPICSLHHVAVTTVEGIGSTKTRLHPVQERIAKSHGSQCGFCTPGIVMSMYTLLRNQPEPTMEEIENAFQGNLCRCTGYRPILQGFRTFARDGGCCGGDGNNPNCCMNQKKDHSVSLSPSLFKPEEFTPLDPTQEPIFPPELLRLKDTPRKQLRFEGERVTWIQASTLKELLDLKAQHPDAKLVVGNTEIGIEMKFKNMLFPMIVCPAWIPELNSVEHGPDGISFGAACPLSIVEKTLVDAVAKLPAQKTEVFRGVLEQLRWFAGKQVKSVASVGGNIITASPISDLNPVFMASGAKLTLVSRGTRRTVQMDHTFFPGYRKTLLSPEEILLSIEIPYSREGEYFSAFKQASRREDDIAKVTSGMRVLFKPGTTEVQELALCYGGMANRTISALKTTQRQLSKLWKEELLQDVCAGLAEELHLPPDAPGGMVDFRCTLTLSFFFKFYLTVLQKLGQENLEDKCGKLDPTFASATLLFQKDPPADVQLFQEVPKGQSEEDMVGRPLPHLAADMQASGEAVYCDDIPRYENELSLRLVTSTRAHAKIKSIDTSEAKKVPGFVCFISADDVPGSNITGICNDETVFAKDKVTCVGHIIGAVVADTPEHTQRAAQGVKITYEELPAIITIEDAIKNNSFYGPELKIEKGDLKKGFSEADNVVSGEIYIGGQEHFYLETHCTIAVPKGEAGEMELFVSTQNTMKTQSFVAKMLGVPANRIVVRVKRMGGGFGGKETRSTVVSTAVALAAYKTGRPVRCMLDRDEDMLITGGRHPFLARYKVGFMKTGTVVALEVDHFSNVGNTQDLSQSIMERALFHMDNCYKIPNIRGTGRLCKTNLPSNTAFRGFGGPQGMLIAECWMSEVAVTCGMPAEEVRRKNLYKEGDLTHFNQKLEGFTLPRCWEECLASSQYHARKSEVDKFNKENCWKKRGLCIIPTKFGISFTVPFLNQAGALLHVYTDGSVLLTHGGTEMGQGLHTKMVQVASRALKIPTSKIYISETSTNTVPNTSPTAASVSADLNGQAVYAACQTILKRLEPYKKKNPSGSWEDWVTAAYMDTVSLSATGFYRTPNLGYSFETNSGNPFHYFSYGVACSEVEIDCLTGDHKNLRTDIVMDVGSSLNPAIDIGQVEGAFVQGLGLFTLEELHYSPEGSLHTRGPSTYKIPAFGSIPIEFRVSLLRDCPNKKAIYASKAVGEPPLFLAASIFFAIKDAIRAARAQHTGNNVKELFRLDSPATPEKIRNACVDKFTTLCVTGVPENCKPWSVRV

Row | SMILES | Xanthine oxidase Inhibition (%) [1] [%] | DPPH Radical Scavenging Activity IC50 [2] [µg/mL] | Superoxide Anion Radical Scavenging Activity IC50 [3] [µg/mL]
1 | Oc1ncnc2[nH]ncc12 [Allopurinol] | 88.2 ± 2.1 | – | –
2 | COc1ccc(O)c(C(C)(C)C)c1 [BHA, butylated hydroxy anisole] | – | 620 ± 110 | 1120 ± 240

Reference: US8357406B2, “Method for preparing raw material for functional foods from barley or wheat seeds” (priority 2009, dated 2013)
